“And” between values parts separate entries of the source, which are not always exact repeats. Equal values may be shown once. “Also recorded” adds a separate entry of the source. Read-outs that look alike come from different tables or passages of the source. Square brackets hold non-standard residues; d marks the D form. Ends that are not written are not given here. Ahx = NCCCCCC(=O)O
How the values were obtained:
6 Hz limbic seizures = test: 6 Hz limbic (psychomotor) seizure test; assay type: in vivo, mouse; details: for % Protection at 30 min (4 mg/kg, i.p.): octreotide and DSIP analogs; for % Protection at 1, 2 and 4 hours afforded by a dose of 4 mg/kg, i.p. (result in words): all time points; for ED50 in the 6 Hz limbic seizure model (in Table 14 in parentheses) / ED50: i.p.; for ED50 in the 6 Hz limbic seizure model (in Table 14 in parentheses): SAR analogs; for effect against 6 Hz (22 mA) limbic seizures: administered into the ventricular space, CF-1 mice; for ED50: Mus musculus, ip
From the text: Mice not displaying limbic seizures were considered protected.
As mentioned above, the 6 Hz seizure becomes more resistant to block by antiepileptic drugs as the current is increased from 22 mA to 44 mA.

[1] = test system: formalin-induced paw licking; test: Mouse formalin test of inflammatory pain; assay type: in vivo; details: for phase II response at the active dose: mouse formalin assay; for Active at: mouse formalin assay of inflammatory pain; for potency in mouse formalin assay: in vivo
Method: An injection of 0.5% formalin is made into the planter region of a mouse right hind paw. This elicits a distinct biphasic behavioral profile characterized by the mouse licking the affected paw. Immediately following the injection the mouse licks the paw for about 10 minutes. This is phase 1 (acute) and is followed by a brief latent period where there is little behavioral activity. A more prolonged period of about 20 to 30 minutes of paw licking ensues which constitutes phase 2 (inflammatory).
Prior to the administration of the active peptide, drug or vehicle each mouse undergoes a 15-minute conditioning period in one of several 6″ tall plexiglass observation tubes (4″ diameter) that are placed in front of a mirror. […] One hour after treatment, formalin was injected sub-dermally (20 μl; 27 gauge needle) into the plantar surface of the right hind foot. The bevel of the needle is placed facing down toward the skin surface. Following the injection of the formalin each animal is observed for first 2 minutes of each 5 minute epoch for a total of 45 minutes. The cumulative length of licking for each 2 minute time period was measured. An animal receiving the requisite volume of vehicle was alternated with each mouse given GAL-BBB2, Gal 1-16, or gabapentin. Animals were euthanized following the conclusion of the experiment.
Area under the curve (AUC) determination was made using the GraphPad Prism Version 3.03. Total AUC is calculated for both the test and control groups for both the acute and inflammatory phases. The AUC for individual animals for each phase is also calculated and converted to percentage of total AUC of control. The average percentages and SEM for both the drug treated and control were calculated and tested for significant difference.

sound-induced seizures = test: Frings audiogenic seizure-susceptible mouse model of reflex epilepsy; assay type: in vivo
From the text: (§1) The ability of individual modified peptides to prevent seizures induced by sound in the AGS-susceptible Frings mouse model can be assessed at the time of peak effect (White et al., 1992). For this test, individual mice are placed into a plexiglass cylinder (diameter, 15 cm; height, 18 cm) fitted with an audio transducer (Model AS-ZC; FET Research and Development, Salt Lake City, Utah), and exposed to a sound stimulus of 110 decibels (11 KHz) delivered for 20 seconds. Sound-induced seizures are characterized by wild running followed by loss of righting reflex with forelimb and hindlimb tonic extension. Mice not displaying hindlimb tonic extension are considered protected.
The two modified galanin analogs (GAL-BBB1 and GAL-BBB2) were administered i.p. to a group of Frings audiogenic seizure susceptible mice in a dose of 4 mg/kg. At various times after administration (i.e., 15, 30, 60, 120, and 240 min) each mouse was placed into a cylindrical test chamber fitted with an audio transducer and challenged with a high-intensity sound stimulus (110 dB, 11 KHz for 20 sec). Animals not displaying tonic hind-limb extension were considered protected. […] In a subsequent study, anticonvulsant efficacy was quantitated at the time to peak effect (i.e., 1 h) in a dose-response study.
as §1, with “analogs” for “peptides”
At various times after administration (i.e., 15, 30, 60, 120, and 240 min) each mouse was placed into a cylindrical test chamber fitted with an audio transducer and challenged with a high-intensity sound stimulus (110 dB, 11 KHz for 20 sec).

[2] = stimulus intensity 22 mA, read-out: 22 mA (ED50, 6 Hz model)
[3] = stimulus intensity 44 mA, read-out: 44 mA (ED50, 6 Hz model)
[4] = stimulus intensity 32 mA, read-out: 32 mA (ED50, 6 Hz model)

With “Lys-Lys-Lys(palm)-Lys-Ahx-DPhe-Cys-Phe-DTrp-Lys-Thr-Cys-Thr-NH2 [SEQ ID NO: 149]” the “% Protection at 30 min (4 mg/kg, i.p.)” value (6 Hz limbic seizures; 4 mg/kg i.p.) was 100%.
In the case of “DPhe-Cys-Phe-DTrp-Lys-Thr-Cys-Thr-NH2 [SEQ ID NO: 148, reference compound]”, the “% Protection at 30 min (4 mg/kg, i.p.)” value (6 Hz limbic seizures; 4 mg/kg i.p.) is reported as 50%.
For “GWTLNSAGYLLGPHAV [Gal(1-16), reference compound]”, the “activity of native fragment in formalin test” value ([1]; 20 mg/kg i.p.) was “inactive”, the “anticonvulsant activity of native fragment” value (sound-induced seizures; 20 mg/kg i.p.) was “inactive; also recorded: but not the native GAL(1-16) fragment (20 mg/kg) was effective” and the “% Protection at 1, 2 and 4 hours afforded by a dose of 4 mg/kg, i.p. (result in words)” value (6 Hz limbic seizures; 4 mg/kg i.p.) was “Not active”. The “ED50 following i.c.v. administration” value (6 Hz limbic seizures; intracerebroventricular, 6 Hz (32 mA)) was 1.7 nmol.
For “(Sar)WTLNSAGY(Ahx)KK(Lys-P)K [NAX 306-4]”, the “activity in the second response phase of the inflammatory pain assay” value ([1]; 2.95 mg/kg) was “very active”, the “phase II response at the active dose” value [1] was “(“flat phase II”)” and the Active at [1] was 2.9 mg/kg. For the same compound, the “potency in mouse formalin assay” value [1] was “potent”, the “% Protection at 2 hours afforded by a dose of 4 mg/kg, i.p.” value (“% Protection at 2 hours afforded … i.p.” below) (6 Hz limbic seizures; 4 mg/kg i.p., 4 mg/kg) was 0% and 0%, 0% and the “% Protection at 4 hours afforded by a dose of 4 mg/kg, i.p.” value (“% Protection at 4 hours afforded … i.p.” for short) (6 Hz limbic seizures; 4 mg/kg i.p., 4 mg/kg) was 0% and 0%, 0%. For the same compound, the “ED50 in the 6 Hz limbic seizure model (in Table 14 in parentheses)” value (from here on “ED50 in the 6 Hz limbic seizure model”) (6 Hz limbic seizures) was “(2.95 mg/kg)”.
With (Sar)WTLNSAGYLLKK(Lys-P)K [NAX 1205-5] the “% Protection at 2 hours afforded … i.p.” value (6 Hz limbic seizures; 4 mg/kg i.p.) was 25% and the “% Protection at 4 hours afforded … i.p.” value (6 Hz limbic seizures; 4 mg/kg i.p.) was 0%.
For [Ahx]GGWAGGDFSGE [SEQ ID NO: 142], the “% Protection at 30 min (4 mg/kg, i.p.)” value (6 Hz limbic seizures; 4 mg/kg i.p.) was 50% and the “% Protection after 2 hours” value (6 Hz limbic seizures; 2 hours, 4 mg/kg i.p.) was “NO: 142) (100% after 2 hours)”.
With “Sar-Trp-Thr-Leu-Asn-Ser-Ala-Gly-Tyr-Leu-Leu-Gly-Pro-His-(Lys-palm)-Tle-NH2 [GAL-BBB1]” the “anticonvulsant activity (protection from tonic hind-limb extension)” value (sound-induced seizures; 4 mg/kg i.p., 15-240 min, also higher dose of 12 mg/kg) was “not active at any time point tested”.
For (Sar)WTLNSAGYLLGPHA(Lys-P) [NAX 306-5], the “% Protection at 1, 2 and 4 hours afforded by a dose of 4 mg/kg, i.p. (result in words)” value (6 Hz limbic seizures; 4 mg/kg i.p.) was “Not active”.
With `C[C@H](N)C(=O)NCC(=O)N[C@H]1CSSC[C@@H](C(=O)O)NC(=O)[C@H](CO)NC(=O)[C@H]([C@@H](C)O)NC(=O)[C@H](Cc2ccccc2)NC(=O)[C@H]([C@@H](C)O)NC(=O)[C@H](CCCCN)NC(=O)[C@H](Cc2c[nH]c3ccccc23)NC(=O)[C@H](Cc2ccccc2)NC(=O)[C@H](Cc2ccccc2)NC(=O)[C@H](CC(N)=O)NC(=O)[C@H](CCCCN)NC1=O` [somatostatin, reference compound] the “effect against 6 Hz (22 mA) limbic seizures” value (6 Hz limbic seizures) was “effective”.
WAGGDFSGE [DSIP, reference compound] was tested, and the “% Protection at 30 min (4 mg/kg, i.p.)” value (6 Hz limbic seizures; 4 mg/kg i.p.) was 0% and the “effect against 6 Hz (22 mA) limbic seizures” value (6 Hz limbic seizures) was “effective”.
Compound `CCCC(CCC)C(=O)O` [Valproic acid, reference compound] has an ED50 (6 Hz limbic seizures; [2]) of 41.5 mg/kg and an ED50 (6 Hz limbic seizures; [3]) of 310 mg/kg.
Compound `O=C1NC(=O)C(c2ccccc2)(c2ccccc2)N1` [Phenytoin, reference compound] has an ED50 (6 Hz limbic seizures; [2]) of 9.4 mg/kg, an ED50 (6 Hz limbic seizures; [4]) greater than 60 mg/kg and an ED50 (6 Hz limbic seizures; [3]) greater than 60 mg/kg.
With `CCC1(C)CC(=O)NC1=O` (centres unmarked) [Ethosuximide, reference compound] the ED50 (6 Hz limbic seizures; [2]) was 86.9 mg/kg, the ED50 (6 Hz limbic seizures; [4]) was 167 mg/kg and the ED50 (6 Hz limbic seizures; [3]) was 600 mg/kg.
In the case of “(Sar)WTLNSAGYLLGPRR(Lys-P)R [NAX 1205-3]”, the “% Protection at 2 hours afforded … i.p.” value (6 Hz limbic seizures; 4 mg/kg i.p.) is reported as 75% and the “% Protection at 4 hours afforded … i.p.” value (6 Hz limbic seizures; 4 mg/kg i.p.) is reported as 0%.
With `Nc1nnc(-c2cccc(Cl)c2Cl)c(N)n1` [Lamotrigine, reference compound] the ED50 (6 Hz limbic seizures; [2]) was 4.4 mg/kg, the ED50 (6 Hz limbic seizures; [4]) was greater than 60 mg/kg and the ED50 (6 Hz limbic seizures; [3]) was greater than 60 mg/kg.
“(Sar)WTLNSAGYLLGPDKDK(Lys-P)DK [NAX 1205-2]” was tested, and the “% Protection at 2 hours afforded … i.p.” value (6 Hz limbic seizures; 4 mg/kg i.p.) was 50%, the “% Protection at 4 hours afforded … i.p.” value (6 Hz limbic seizures; 4 mg/kg i.p.) was 75% and the “ED50 in the 6 Hz limbic seizure model” value (6 Hz limbic seizures) was “(1.2 mg/kg)”.
In the case of (Sar)WTLNSAGYKK(Lys-P)K [NAX 306-3], the “phase II response at the active dose” value [1] is reported as “(“flat phase II”)”, the Active at [1] is reported as 2.7 mg/kg and the “potency in mouse formalin assay” value [1] is reported as “potent”. The “% Protection at 2 hours afforded … i.p.” value (6 Hz limbic seizures; 4 mg/kg i.p.) was 25%, the “% Protection at 4 hours afforded … i.p.” value (6 Hz limbic seizures; 4 mg/kg i.p.) was 0% and the “ED50 in the 6 Hz limbic seizure model” value (6 Hz limbic seizures) was “(2.7 mg/kg)”.

— patent publication US9586999B2, “Methods and compositions related to improving properties of pharmacological agents targeting nervous system” (University of Utah Research Foundation, priority 2006, dated 2017)
